Laboratory results published in US20080199546A1, “Anti-resorptive and bone building dietary supplements and methods of use” (priority 2006, published 2008).

Tests used:
BMP-2 promoter = assay: BMP2 promoter assay (luciferase reporter); assay type: cell-based, murine; conditions: summary of Table 1
RANK-L = assay: Production/release of RANK-L protein (ELISA, IL-1b stimulated MG-63 cells); assay type: cell-based; conditions: Homo sapiens, MG-63, 1 μg/ml
Experimental: Weigh between 150 to 250 mg of each ingredient into a 15 ml conial bottomed tube. […] For solvent control, mix 1.5 ml DMSO, 0.9 ml ethanol, and 0.6 ml water. Vortex thoroughly. Sonicate for 10 minute in water bath, room temperature. Vortex thoroughly again. Dilute ingredient stocks in fresh phenol red-free media. Human osteosarcoma cell line, MG-63 (ATCC# CRL-1427), is maintained in phenol-red containing MEM (as recommended by ATCC) at 37° C. and 5% CO2. Twenty-four hours prior to experimentation, 3×10^5 cells are seeded in 12-well plates in phenol-red free MEM. Spent medium is removed from wells and MG-63 cells (ATCC # CRL-1427) are pretreated with 1, 0.1, 0.01 μg/ml of each test ingredient or 30 ng/ml TGF-beta (+ control) for 4 hours at 37° C., 5% CO2. Stock solution of TGF-beta is 30 μg/ml (from R&D Systems, cat# 100-B-001). After pretreatment incubation period, […] IL-1b (Calbiochem (catalog # 407615), and stock solution at 10 μg/ml, cat # 407615) were added to the cell cultures for 18 hours at 37° C. Supernatant media from the treated and stimulated cells were removed and total RANK-L proteins measured using RANK-L ELISA (in triplicate) as described by manufacturer (from APOTECH, catalog # APO-54N-016-k101). The resulting protein quantity was compared to that of media (null) treated stimulated cells to determine percent decrease in total RANK-L protein.

RANK-L gene expression = RANK-L gene expression (qPCR, IL-1b stimulated MG63 cells); assay type: cell-based, human; conditions: IL1B 3 ng/ml alone (stimulus)
Experimental: Punicalagin test samples are extracted from pomegranates, including from pomegranate peels, skins, fleshy fruit, and seeds using 100% DMSO at 100 mg/ml. Particulate matter in the extraction is not removed. The punicalagin test samples are diluted in MEM without phenol red (estrogenic) and 0.1% FBS to lower background signaling to ten times the final concentrations. Final DMSO concentrations are kept below 0.2% and are kept constant during treatments. DMSO solvent control is used in the untreated group.
MG63 cells (ATCC # […]), a human-derived osteosarcoma cell line, are plated at 200,000 cells per well in a 12 well plate with phenol red free MEM at 10% FBS. The next day the media is changed to phenol red free MEM at 0.1% FBS. The cells are incubated for four hours and then treated with punicalagin test samples at concentrations of 1, 10, and 100 μg/ml.
After four hours of treatment, IL-1b (Calbiochem (catalog # 407615), stock solution at 10 μg/ml, cat # 407615) are added to a final concentration of 3 ng/mL. […]
After 16 hours the cells are lysed and the RNA is extracted from the cells with the RNasy purification kit (Qiagen). RNA is reverse transcribed to cDNA and quantified by qPCR using 2-step qRT-PCR reagents (Invitrogen), and 4 μL of purified RNA. […]
RANK-L and GAPDH gene expression Ct data are obtained. RNA is quantified with adjustments for GAPDH expression. […]

[1] = tested on: MMP9 (type IV collagenase); assay: MMP9 (type IV collagenase) protein expression, keratinocyte/fibroblast co-culture stimulated with IL-1B; assay type: cell-based; conditions: IL1B 10 ng/ml alone (stimulus); untreated = 1.0
Experimental: Keratinocytes and fibroblasts were co-cultured in DMEM containing 0.5% BSA. Co-cultures were exposed to various concentrations of punicalagins (ranging from 0.1%-10%) extracted from pomegranates. Specifically, the ability of the pomegranate extracts to inhibit type IV collagenase protein (matrix metalloproteinase-9/MMP9) expression at concentrations of 1.0 μg/ml, 10 μg/ml, and 100 μg/ml were tested. Following exposure to the pomegranate extracts, the co-culture cells were stimulated with 10 ng/ml of IL-1B for 18 hours. Following stimulation with IL-1B for 18 hours, and MMP9 concentration was determined in the media as shown below in Table 8.

| Activation of the BMP-2 promoter (in words) (BMP-2 promoter) | MMP9 expression (fold of untreated) [1] | Compound | inhibition at 1 µg/mL (RANK-L) | RANK-L Expression (fold increase) (RANK-L gene expression) |
| --- | --- | --- | --- | --- |
| most potent activators | – | CC(C)Oc1ccc2c(=O)c(-c3ccccc3)coc2c1 [I, 7-isopropoxy isoflavone] | 0.8 ± 0.3% | – |
| most potent activators | – | O=c1c(O)c(-c2ccc(O)c(O)c2)oc2cc(O)cc(O)c12 [Q, Quercetin] | – | – |
| – | 1.65 | IL1B: IL-1b (Calbiochem), stimulus of RANK-L and MMP9 expression | – | 3.3 ± 0 fold increase |
